Reference: BindingDB's records for doi:10.1111/j.1747-0285.2009.00857.x (Istituto Di Biostrutture E Bioimmagini-Cnr, 2009)

Legend:
Assay in all cases: Inhibition Assay
Settings in all cases: pH 7.5; 20 °C
Carbonic anhydrase 1 = Carbonic anhydrase 1 (Homo sapiens, UniProt P00915)
Source text: (§1) Inhibition assay using carbonic anhydrases with an SX.18MV-R, a stopped-flow instrument from Applied Photophysics was used for assaying the CA catalyzed CO2 hydration activity.

Carbonic anhydrase 12 = Carbonic anhydrase 12 (Homo sapiens, UniProt O43570)
Source text: as §1

Carbonic anhydrase 13 = Carbonic anhydrase 13 (Homo sapiens, UniProt Q8N1Q1)
Source text: as §1

Carbonic anhydrase 14 = Carbonic anhydrase 14 (Homo sapiens, UniProt Q9ULX7)
Source text: as §1

Carbonic anhydrase 3 = Carbonic anhydrase 3 (Homo sapiens, UniProt P07451)
Source text: as §1

Carbonic anhydrase 4 = Carbonic anhydrase 4 (Homo sapiens, UniProt P22748)
Source text: as §1

[1] = biological target: Carbonic anhydrase 5A, mitochondrial (Homo sapiens, UniProt P35218)
Source text: as §1

[2] = biological target: Carbonic anhydrase 5B, mitochondrial (Homo sapiens, UniProt Q9Y2D0)
Source text: as §1

Carbonic anhydrase 6 = Carbonic anhydrase 6 (Homo sapiens, UniProt P23280)
Source text: as §1

Carbonic anhydrase 7 = Carbonic anhydrase 7 (Homo sapiens, UniProt P43166)
Source text: as §1

Carbonic anhydrase 2 = Carbonic anhydrase 2 (Homo sapiens, UniProt P00918)
Source text: as §1

Chain of Carbonic anhydrase 5B, mitochondrial (Q9Y2D0 whole entry): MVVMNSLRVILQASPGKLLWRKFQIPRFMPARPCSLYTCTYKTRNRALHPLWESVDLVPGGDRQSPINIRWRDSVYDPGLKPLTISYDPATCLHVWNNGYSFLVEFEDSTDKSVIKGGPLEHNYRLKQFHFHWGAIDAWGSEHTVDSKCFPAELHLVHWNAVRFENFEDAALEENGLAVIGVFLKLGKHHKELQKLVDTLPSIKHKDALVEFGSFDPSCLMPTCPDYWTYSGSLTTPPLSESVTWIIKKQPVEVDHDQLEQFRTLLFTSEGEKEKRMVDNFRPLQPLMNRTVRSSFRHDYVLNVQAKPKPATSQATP
Chain of Carbonic anhydrase 3 (P07451 whole entry): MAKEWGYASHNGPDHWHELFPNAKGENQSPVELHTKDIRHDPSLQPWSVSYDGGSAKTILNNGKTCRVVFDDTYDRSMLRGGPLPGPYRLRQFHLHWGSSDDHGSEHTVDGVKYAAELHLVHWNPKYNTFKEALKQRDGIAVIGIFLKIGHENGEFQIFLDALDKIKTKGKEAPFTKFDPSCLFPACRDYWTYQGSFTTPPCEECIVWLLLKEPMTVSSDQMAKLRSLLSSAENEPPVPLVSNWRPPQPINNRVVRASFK
Chain of Carbonic anhydrase 13 (Q8N1Q1 whole entry): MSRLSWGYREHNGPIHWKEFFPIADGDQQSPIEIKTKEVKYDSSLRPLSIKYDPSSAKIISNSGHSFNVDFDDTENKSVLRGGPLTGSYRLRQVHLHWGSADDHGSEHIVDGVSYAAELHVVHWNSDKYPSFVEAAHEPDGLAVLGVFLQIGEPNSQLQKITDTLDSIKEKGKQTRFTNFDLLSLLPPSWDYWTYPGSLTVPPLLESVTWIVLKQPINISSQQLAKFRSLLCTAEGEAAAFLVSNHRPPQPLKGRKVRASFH
Chain of Carbonic anhydrase 4 (P22748 whole entry): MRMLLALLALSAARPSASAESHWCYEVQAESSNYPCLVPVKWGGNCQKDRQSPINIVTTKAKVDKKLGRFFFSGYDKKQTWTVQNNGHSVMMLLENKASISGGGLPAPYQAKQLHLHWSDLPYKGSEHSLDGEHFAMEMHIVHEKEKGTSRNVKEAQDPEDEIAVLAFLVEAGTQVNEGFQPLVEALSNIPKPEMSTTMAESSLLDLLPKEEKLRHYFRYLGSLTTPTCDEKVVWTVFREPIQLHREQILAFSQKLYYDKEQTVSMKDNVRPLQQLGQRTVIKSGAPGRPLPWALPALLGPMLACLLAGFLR
Chain of Carbonic anhydrase 1 (P00915 whole entry): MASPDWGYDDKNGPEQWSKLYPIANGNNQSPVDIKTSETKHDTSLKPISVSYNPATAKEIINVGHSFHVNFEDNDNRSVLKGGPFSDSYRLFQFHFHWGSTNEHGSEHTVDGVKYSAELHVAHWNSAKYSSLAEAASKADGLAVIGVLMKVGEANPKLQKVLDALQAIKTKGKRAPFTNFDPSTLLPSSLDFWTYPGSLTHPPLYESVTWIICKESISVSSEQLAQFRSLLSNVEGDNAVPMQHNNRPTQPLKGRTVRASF
Chain of Carbonic anhydrase 5A, mitochondrial (P35218 whole entry): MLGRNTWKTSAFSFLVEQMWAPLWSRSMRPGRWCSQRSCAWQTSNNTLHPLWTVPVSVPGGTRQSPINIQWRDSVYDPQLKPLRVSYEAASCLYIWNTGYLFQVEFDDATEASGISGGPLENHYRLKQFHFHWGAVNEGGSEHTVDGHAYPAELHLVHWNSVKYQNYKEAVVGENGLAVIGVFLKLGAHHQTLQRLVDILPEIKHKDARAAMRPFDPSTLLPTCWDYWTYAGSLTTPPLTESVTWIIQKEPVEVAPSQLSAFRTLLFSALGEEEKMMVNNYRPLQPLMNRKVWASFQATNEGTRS
Chain of Carbonic anhydrase 12 (O43570 whole entry): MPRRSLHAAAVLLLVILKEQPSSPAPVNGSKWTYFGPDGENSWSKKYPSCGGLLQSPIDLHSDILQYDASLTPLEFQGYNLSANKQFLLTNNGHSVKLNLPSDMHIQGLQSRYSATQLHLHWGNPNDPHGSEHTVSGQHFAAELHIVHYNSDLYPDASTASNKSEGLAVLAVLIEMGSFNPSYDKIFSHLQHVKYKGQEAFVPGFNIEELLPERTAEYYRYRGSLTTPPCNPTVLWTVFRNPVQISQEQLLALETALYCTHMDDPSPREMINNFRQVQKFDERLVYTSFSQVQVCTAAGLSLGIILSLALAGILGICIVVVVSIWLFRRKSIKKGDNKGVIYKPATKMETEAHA
Chain of Carbonic anhydrase 14 (Q9ULX7 whole entry): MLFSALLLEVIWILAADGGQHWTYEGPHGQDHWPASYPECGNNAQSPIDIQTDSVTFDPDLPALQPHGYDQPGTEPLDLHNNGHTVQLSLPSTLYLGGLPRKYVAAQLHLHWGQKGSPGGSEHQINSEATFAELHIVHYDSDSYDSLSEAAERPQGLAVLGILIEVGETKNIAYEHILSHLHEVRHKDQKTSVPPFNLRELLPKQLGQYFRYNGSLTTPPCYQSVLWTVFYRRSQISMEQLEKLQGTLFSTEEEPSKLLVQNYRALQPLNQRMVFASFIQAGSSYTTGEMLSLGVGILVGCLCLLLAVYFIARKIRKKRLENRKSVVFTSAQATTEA
Chain of Carbonic anhydrase 6 (P23280 whole entry): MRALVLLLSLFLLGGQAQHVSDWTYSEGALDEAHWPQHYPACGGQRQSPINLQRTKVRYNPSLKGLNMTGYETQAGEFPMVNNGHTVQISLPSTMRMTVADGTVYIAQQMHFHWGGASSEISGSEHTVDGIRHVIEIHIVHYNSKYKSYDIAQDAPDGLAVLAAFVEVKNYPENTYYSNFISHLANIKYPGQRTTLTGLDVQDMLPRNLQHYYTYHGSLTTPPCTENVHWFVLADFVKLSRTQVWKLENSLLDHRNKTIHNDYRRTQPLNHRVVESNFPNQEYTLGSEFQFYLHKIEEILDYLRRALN
Chain of Carbonic anhydrase 7 (P43166 whole entry): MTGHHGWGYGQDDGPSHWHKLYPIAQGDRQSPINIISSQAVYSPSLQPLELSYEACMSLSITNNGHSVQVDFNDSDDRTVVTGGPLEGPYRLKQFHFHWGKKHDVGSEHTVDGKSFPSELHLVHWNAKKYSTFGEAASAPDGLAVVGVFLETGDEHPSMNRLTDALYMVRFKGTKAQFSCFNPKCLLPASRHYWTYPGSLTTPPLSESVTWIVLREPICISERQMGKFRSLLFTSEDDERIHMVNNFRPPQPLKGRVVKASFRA

Work on `CC1(C)O[C@@H]2[C@@H](CC[C@@]3(COS(N)(=O)=O)OC(C)(C)O[C@@H]23)O1` yielded a Ki (Carbonic anhydrase 1) of 250 nM, a Ki (Carbonic anhydrase 12) of 3.8 nM and a Ki (Carbonic anhydrase 13) of 47 nM. The Ki (Carbonic anhydrase 14) was 1460 nM, the Ki (Carbonic anhydrase 3) was 780000 nM and the Ki (Carbonic anhydrase 4) was 4900 nM. For the same compound, the Ki [1] was 63 nM, the Ki [2] was 30 nM and the Ki (Carbonic anhydrase 6) was 45 nM.

Work on `NS(=O)(=O)c1nnc(NC(=O)[C@]23C[C@H]4C[C@H](C[C@H](C4)C2)C3)s1` [Investigational agent, 4] yielded a Ki (Carbonic anhydrase 1) of 850 nM, a Ki (Carbonic anhydrase 12) of 0.9 nM and a Ki (Carbonic anhydrase 3) of 310000 nM. It also gave a Ki (Carbonic anhydrase 7) of 0.5 nM.

In the case of `NS(=O)(=O)c1nnc(NC(=O)N[C@]23C[C@H]4C[C@H](C[C@H](C4)C2)C3)s1` [Investigational agent, 5], the Ki (Carbonic anhydrase 1) is reported as 810 nM, the Ki (Carbonic anhydrase 12) is reported as 4.7 nM and the Ki (Carbonic anhydrase 13) is reported as 39 nM. It also gave a Ki (Carbonic anhydrase 14) of 15 nM, a Ki (Carbonic anhydrase 2) of 13 nM and a Ki (Carbonic anhydrase 3) of 330000 nM. For the same compound, the Ki (Carbonic anhydrase 4) was 30 nM, the Ki [1] was 135 nM and the Ki [2] was 45 nM. It also gave a Ki (Carbonic anhydrase 6) of 31 nM and a Ki (Carbonic anhydrase 7) of 1.3 nM.

Compound `NS(=O)(=O)c1ccc(N2CCCCS2(=O)=O)cc1` [Ospolot] has a Ki (Carbonic anhydrase 13) of 1450 nM, a Ki (Carbonic anhydrase 14) of 1540 nM and a Ki (Carbonic anhydrase 3) of 630000 nM. It also gave a Ki (Carbonic anhydrase 4) of 95 nM, a Ki [1] of 81 nM and a Ki [2] of 91 nM.
